# According to patent US5491131A, “Somatostatin-active polypeptide composition” (Applied Research Systems ARS Holding NV, priority 1989, dated 1996):
# Entries after “also recorded” stand apart in the source; their conditions may differ.
# Tests used:
# [1] = test system: rat mesangial cells in culture; assay: Reversal of hydrogen peroxide induced contraction of mesangial cells (CSA); format: cell-based, Wistar rats; settings: for effect on CSA of untreated cells: somatostatin alone
# Experimental: (§1) The mesangial cells were obtained after glomeruli isolation by differential sieving (R. P. Misra. Am. J. Clin. Pathol 1972 58 135-139) and collagenase digestion of kidney tissue from Wistar rats. The cell surface area (CSA) was measured using a digital planimeter.
# (§2) Microphotographs were taken at different times and the CSA measured. Each experiment was repeated three times and a total of 8-15 cells were measured for each part of each experiment. The results are expressed as a percentage increase or decrease over the initial CSA, […].
# [2] = test system: rat mesangial cells in culture; assay: Prevention of hydrogen peroxide induced contraction of mesangial cells (CSA); format: cell-based, Wistar rats; settings: for effect on hydrogen peroxide induced reduction in CSA: preincubation 10 minutes before hydrogen peroxide 10^-4 M; for change in CSA compared with the control: somatostatin alone
# Experimental: as §1, §2
# [3] = test system: guanylate cyclase; settings: some cell types; cited from earlier work
# [4] = test system: rat mesangial cells in culture; assay: Prevention of angiotensin II induced contraction of mesangial cells (cell surface area, CSA); format: cell-based, Wistar rats; settings: for effect on contractile effect of angiotensin (CSA): preincubation 10 minutes before angiotensin II 10^-8 M
# Experimental: as §1
# In experiments concerned with the ability of somatostatin to prevent contraction, the mesangial cells were incubated with somatostatin for ten minutes at a concentration of 10^-6 M or 10^-8 M before the addition of angiotensin II (10^-8 M) or hydrogen peroxide (10^-4 M).
# (§3) In all these experiments, control cells lacked the addition of somatostatin, angiotensin II or hydrogen peroxide to the buffer.
# as §2
# [5] = in vivo; cited from earlier work
# [6] = test system: rat mesangial cells in culture; assay: Reversal of angiotensin II induced contraction of mesangial cells (CSA); format: cell-based, Wistar rats; settings: FIG. 3
# Experimental: as §1
# In experiments concerned with the ability of somatostatin to revese contraction, the mesangial cells were incubated for 30 minutes with either angiotensin II or hydrogen peroxide (at the concentrations mentioned above) before somatostatin at a concentration of 10^-6 M or 10^-8 M was added to the cells.
# as §3, §2
# [7] = somatostatin infusions of 250 to 375 microgrammes; cited from earlier work
compound,measurement,setting,value
OO [hydrogen peroxide],contraction of cells treated with only hydrogen peroxide,"[1]; hydrogen peroxide 10^-4 M alone, t=0 to t=60 minutes, FIGS. 7, 8, 10",remained in a contracted state; also recorded: contracted to a significant degree
same,effect on CSA,[2]; hydrogen peroxide 10^-4 M alone,significant reduction in CSA
"C[C@H](N)C(=O)NCC(=O)N[C@H]1CSSC[C@@H](C(=O)O)NC(=O)[C@H](CO)NC(=O)[C@H]([C@@H](C)O)NC(=O)[C@H](Cc2ccccc2)NC(=O)[C@H]([C@@H](C)O)NC(=O)[C@H](CCCCN)NC(=O)[C@H](Cc2c[nH]c3ccccc23)NC(=O)[C@H](Cc2ccccc2)NC(=O)[C@H](Cc2ccccc2)NC(=O)[C@H](CC(N)=O)NC(=O)[C@H](CCCCN)NC1=O [somatostatin, Somatostatin]",intracellular cGMP concentrations,[3],increase intracellular cGMP concentrations
same,cell size in microphotographs,"[4]; cells pre-treated with somatostatin before addition of angiotensin II, FIG. 12",substantially no change in the size of these cells
same,effect on contractile effect of angiotensin (CSA),"[4]; somatostatin 10^-6 M, FIG. 1",completely preventing the contractile effect of angiotensin II; also recorded: completely inhibited the contractile effect of angiotensin
same,effect on contractile effect of angiotensin (CSA),"[4]; somatostatin 10^-8 M, FIG. 2",the same effect occurs
same,effect in isolation on CSA,"[4]; somatostatin alone, 10^-6 M, FIG. 1",no significant effect
same,urinary calcium excretion,[5],reduces
same,cell size in microphotographs,"[1]; hydrogen peroxide at t=0, somatostatin added at t=30 minutes, read at t=60 minutes, FIG. 11",relax to almost their original size
same,reversal of contractile effect of hydrogen peroxide (CSA),"[1]; somatostatin 10^-6 M added 30 minutes after hydrogen peroxide 10^-4 M, read after a further 30 minutes, FIG. 7",reverses contraction; also recorded: CSA returns to normal
same,reversal of contractile effect of hydrogen peroxide (CSA),"[1]; somatostatin 10^-8 M added 30 minutes after hydrogen peroxide 10^-4 M, FIG. 8",The same effect was demonstrated
same,effect on CSA of untreated cells,"[1]; 10^-6 M, FIG. 7",did not significantly effect CSA
same,effect on CSA of untreated cells,"[1]; 10^-8 M, FIG. 8",did not significantly effect CSA
same,"change in CSA, incubated in isolation","[6]; somatostatin alone, 10^-6 M",did not observe any significant change in CSA
same,reduction in heart rate,[7],about 10 beats per minute
same,effect on hydrogen peroxide induced reduction in CSA,"[2]; somatostatin 10^-6 M, FIG. 5",equally effective in preventing the contractile effect; also recorded: prevented
same,effect on hydrogen peroxide induced reduction in CSA,"[2]; somatostatin 10^-8 M, FIG. 6",prevented
same,change in CSA compared with the control,"[2]; 10^-6 M, FIG. 5",did not in itself induce any significant change in CSA
same,change in CSA compared with the control,"[2]; 10^-8 M, FIG. 6",did not in itself induce any significant change in CSA
angiotensin II [contractile stimulus added to mesangial cells at 10^-8 M],effect on CSA,"[4]; angiotensin II 10^-8 M alone, after 30 minutes incubation",significantly reducing the CSA
same,persistence of induced contraction,[6]; angiotensin II 10^-8 M alone,persisted for 60 minutes
